Experimental data taken from PubChem BioAssay (NCI).
Where “and” joins values, the source holds several entries; their conditions need not be identical. Identical values can stand only once.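 Following 48 hours of exposure in 96-well plates, responses at five concentrations were used to interpolate endpoints linearly. GI50 marks 50% less growth. TGI marks complete inhibition of growth.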

What was measured:
Test in all cases: inhibition of tumour cell growth, NCI panel, 48 h
[1] = tested on: HCT-116 colon
[2] = tested on: MDA-MB-231 breast
[3] = tested on: SK-MEL-5 melanoma
[4] = tested on: MOLT-4 leukemia
[5] = tested on: MCF7 breast
[6] = tested on: NCI/ADR-RES ovarian

Compound | GI50 [1] [nM] | TGI [1] | GI50 [2] [µM] | TGI [2] | GI50 [3] [nM] | TGI [3] | GI50 [4] [µM] | TGI [4] | GI50 [5] [µM] | TGI [5] [µM] | GI50 [6] [µM] | TGI [6]
CSc1ccc(C2=NN(C(C)=O)C(c3cc(C)cs3)C2)cc1 (stereo not drawn) | 20400 | 66.1 µM | 27.5 | > 100 µM | 15100 | 29.5 µM | 7.26 | 44.1 µM | 16.2 | 46.3 | 24.5 | > 100 µM
CC1=C(C(=O)Nc2ccc3[nH]ncc3c2)C(c2ccc3ccccc3c2)CC(=O)N1 (stereo not drawn) | 14100 | > 25 µM | 11.7 | > 25 µM | > 19300 | > 25 µM | > 25 | > 25 µM | 24.4 | > 25 | > 25 | > 25 µM
COC(=O)CCCCN=Cc1c(O)c(O)c(C(C)C)c2cc(C)c(-c3c(C)cc4c(C(C)C)c(O)c(O)c(C=NCCCCC(=O)OC)c4c3O)c(O)c12 | 904 | 4.98 µM | 1.08 | 12.1 µM | 1830 | 8.75 µM | 0.783 | 19.2 µM | 0.917 | 6.26 | 2.32 | > 32.5 µM
O=C(c1ccco1)c1nc2ccc(C(F)(F)F)cc2[n+]([O-])c1C(F)(F)F | > 100000 | > 100 µM | 25.4 | > 100 µM | 31600 | > 100 µM | > 100 | > 100 µM | 41.6 | > 100 | > 100 | > 100 µM
COc1cnc2cc(C(=O)O)c3c([N+](=O)[O-])cccc3c2c1 |  | > 100 µM |  | > 100 µM |  | > 100 µM |  | > 100 µM |  | > 100 |  | > 100 µM
COC(=O)c1cc2c3ccccc3[nH]c2c2ncccc12 | 54900 | > 100 µM | 63.9 | > 100 µM | 58000 | > 100 µM | > 100 | > 100 µM | 14.4 | > 100 | 56.2 | > 100 µM
N#Cc1ccc(C#Cc2ccccc2C#CCCCCO)cc1 | 12700 | 25.3 µM | 16.7 | 31.3 µM | 17500 | 31.9 µM | 17.8 | 37.7 µM | 22.1 | 45.6 | 17.7 | 36.9 µM
CCCCC(=O)OCC1OC(n2cnc3c(=S)nc[nH]c32)C(OC(=O)CCCC)C1OC(=O)CCCC (stereo not drawn) | 2150 | > 100 µM | 5.22 | > 100 µM | 1760 | > 46.5 µM | 5.74 | > 100 µM | 1.13 | > 100 | 3.51 | > 100 µM
CCCCC/C(C=C(C#N)C#N)=C/c1ccccc1 | 1950 | 4.46 µM | 3.85 | 16.2 µM | 2680 | 14.2 µM | 2.37 | 6.98 µM | 3.46 | 17.4 | 2.48 | 6.46 µM
Cc1ccc(S(=O)(=O)N(CCOc2ccc(/C(N)=N/Cl)cc2)CCOc2ccc(/C(N)=N\Cl)cc2)cc1 | 12700 | > 100 µM | 44.4 | > 100 µM | 10300 | 26.8 µM | 30.6 | > 100 µM | 8.08 | > 100 | > 100 | > 100 µM
O=C1CNCCCN2CCN(CCCNCC(=O)Nc3ccc(cc3)S(=O)(=O)c3ccc(cc3)NC(=O)CNCCCN3CCN(CCCNCC(=O)Nc4ccc(cc4)S(=O)(=O)c4ccc(cc4)N1)CC3)CC2 |  | > 80.4 µM |  | 52.1 µM |  | > 73 µM |  | > 51 µM |  | > 100 |  | > 100 µM
COc1cc(/C=C/c2cc(/C=C/c3ccc(O)c(OC)c3)n(-c3ccccc3)n2)ccc1O |  |  | 0.557 | 6.94 µM | 252 | 1.36 µM | 0.347 | > 100 µM | 0.265 | 1.7 | 0.0874 | 3.85 µM
Cn1c(N2NC(=O)C(N=Nc3ccc(S(N)(=O)=O)cc3)C2=O)nc(-c2ccco2)c(C#N)c1=O (stereo not drawn) | 15400 | > 50 µM | 28.6 | > 50 µM | 35300 | > 50 µM | 9.27 | 27.8 µM | 14.7 | > 50 | > 50 | > 50 µM
CCNCCNc1cc(-c2ccc(C(=O)OC)cc2)c(C#N)c2nc3ccccc3n12 | 758 | 2.09 µM |  |  | 1700 | 3.11 µM |  |  | 1.52 | > 100 | 2.8 | > 100 µM
Cc1ccc(-c2c3c([nH]c(=O)c2C#N)-c2cc(F)ccc2OC3)cc1 |  |  | 34.8 | > 100 µM | 41800 | > 100 µM | 97.5 | > 100 µM | 52.7 | > 100 | > 100 | > 100 µM
CC1=C(CCCNS(C)(=O)=O)C2=C(C)C3(CC3)[C@@](C)(O)C(=O)C2=C1 | 863 | > 100 µM | 1.63 | 6.5 µM | 492 | 1.98 µM | 37.2 | > 100 µM | 2.01 | > 100 | 1.38 | 18.1 µM
O=C(NCCOCCOCCNc1cccc2c1C(=O)N(C1CCCNC1=O)C2=O)c1cc2c(o1)C(=O)c1ccccc1C2=O (stereo not drawn) | 2060 | 5.54 µM | 2.72 | 9.96 µM | 707 | 1.99 µM | 2.4 | 6.01 µM | 1.25 | 3.21 | 10.3 | 32 µM
CCOc1cccc(/C=N/NC(=O)c2ccccc2Nc2ccnc(C(F)(F)F)c2)c1O | 336 | > 51.9 µM | 0.7 | > 100 µM | 500 | 4.91 µM | 0.116 | 0.459 µM | 0.34 | 25.4 | 0.506 | 26.3 µM
COc1ccc(/C(=C2\O[C@@H]([C@H]3COC(C)(C)O3)[C@H]3OC(C)(C)O[C@@H]23)c2cc(OC)c(OC)c(OC)c2)cc1O | 4140 | > 100 µM | 4.58 | 30.7 µM | 2690 | 11.2 µM | 6.93 | > 100 µM | 3.78 | > 100 | 2.52 | 6.91 µM
C=C(CN1CCc2ccccc2C1)c1ccc(C(=O)Nc2cnccn2)cc1 | 16600 | 68 µM | 27.3 | > 100 µM | 20800 | 61 µM | 5.82 | > 100 µM | > 100 | > 100 | 4.95 | > 100 µM

Compound | GI50 [1] [nM] | TGI [1] | GI50 [2] [µM] | TGI [2] | GI50 [3] [nM] | TGI [3] | GI50 [4] [µM] | TGI [4] | GI50 [5] [µM] | TGI [5] [µM] | GI50 [6] [µM] | TGI [6]
O=[N+]([O-])/C=C\c1ccc(Cl)c(Cl)c1 |  |  | 5.73 | 23.2 µM | 3570 | 14 µM | 1.55 | 6.9 µM |  |  | 2.18 | 4.78 µM
O=C(Nc1ccc(N2CCNCC2)cc1)c1[nH]ncc1Nc1cc(Oc2ccccc2)ncn1 | 1420 | 2.99 µM | 2.03 | 5.72 µM | 1430 | 3 µM | 2.05 | 5.28 µM | 1.28 | 4.07 | 12 | 39.2 µM
CC1CCC2(C(=O)O)CCC3(C)C(=CCC4C5(C)CC(O)C(O)C(C)(CO)C5C(O)CC43C)C2C1C (stereo not drawn) |  | > 24.3 µM |  | 72 µM |  | 87.2 µM |  | > 100 µM |  | > 100 |  | > 100 µM
COc1cc(OC)cc(-c2ccc(-c3ccc(C(=N)N)o3)o2)c1 | 2510 | 6.11 µM | 2.35 | 4.78 µM | 1950 | 3.39 µM | 2.44 | 6.7 µM | 1.8 | 4.31 | 8.26 | 22.4 µM
Cn1cc(-c2cnc3ccc(NC(=O)Nc4ccc(F)c(Br)c4)cc3n2)cn1 | 1870 | 3.75 µM | 1.78 | 4.14 µM | 1630 | 3.03 µM |  |  |  |  | 2.21 | 5.41 µM
Cc1ccc(CS/C(=C\c2ccc([N+](=O)[O-])cc2)C(=O)c2ccc(F)cc2)cc1 |  |  | 2.42 | 6.08 µM | 2400 | 5.98 µM | 3.35 | > 100 µM |  |  | 3.28 | > 100 µM
O=C(O)CCCCC(CCSCc1ccccc1)SCc1ccccc1 (stereo not drawn) | 37700 | > 100 µM | > 66.9 | > 100 µM | 53500 | > 100 µM | 47 | > 100 µM | 58.8 | > 100 | 48.6 | > 100 µM
CSc1cc(N=Nc2nc3ccccc3s2)c2ccccc2c1O | 7300 | 29.3 µM | 6.97 | 14.6 µM | 6430 | 13.3 µM |  |  | 9.51 | 28.8 | 7.17 | 20.7 µM
N#C/C(=C1C=C/C(=N/O)C(Br)=C/1)c1ccccc1 | 362 | 2.13 µM | 2.27 | 6.73 µM | 2750 | 10.4 µM | 2.93 | 11.5 µM | 0.323 | 11.3 | 2.61 | 84.1 µM
Cc1cc(I)cc(CNCCCN2CCSCC2)c1O | 11100 | 23 µM | 18.2 | 41.8 µM | 10700 | 22.5 µM | 15.1 | 33.9 µM | 15.1 | 31.6 | 18.1 | 36.6 µM
O=C1c2c(c3c4ccccc4n(CCCCCCBr)c3c3[nH]c4ccccc4c23)C(=O)N1O | 2150 | 10.8 µM | 2.9 | 9.52 µM | 1480 | 2.8 µM | 1.94 | 5.68 µM |  |  | 2.49 | 7.8 µM
Nc1ccn(C2O[C@H](CO)[C@@H](O)[C@@H]2O)c(=O)n1 (stereo partly drawn) | 24200 | > 100 µM |  | > 100 µM |  | > 100 µM | 16.1 | > 100 µM | 27.1 | > 100 |  | > 100 µM
O=c1oc2ccc(F)cc2c(=O)n1-c1ccc(F)cc1F | 2860 | 9.6 µM | 2.3 | 6.99 µM | 1760 | 3.69 µM | 3.46 | > 100 µM | 2.87 | > 100 | 3.24 | > 100 µM
O=C(O)Cn1ccc(=O)c2ccc([N+](=O)[O-])cc21 |  | > 100 µM |  | 78.5 µM |  | > 100 µM |  | > 100 µM |  | > 100 |  | > 100 µM
O=NN(Cc1ccc(Cl)cc1)C(C(=O)O)c1ccccc1 (stereo not drawn) |  | > 100 µM |  | > 100 µM |  | > 100 µM |  | > 100 µM |  | > 100 |  | > 100 µM
COc1cccc(/C=N/NC(=O)c2ccccc2Nc2ccnc(C(F)(F)F)c2)c1O | 311 | > 67.2 µM | 0.423 | > 100 µM | 418 | 5.65 µM | 0.196 | 1.19 µM | 0.313 | 29.5 | 0.512 | 27.9 µM
O=C(CN1CCOCC1)Nc1ccc(Cn2nnc3c2C(=O)c2nnn(Cc4ccc(NC(=O)CN5CCOCC5)cc4)c2C3=O)cc1 | 316 | 1.16 µM | 0.26 | > 100 µM | 249 | 0.877 µM | 0.254 | 0.705 µM | 0.18 | 0.484 | > 100 | > 100 µM
CCOC(=O)/C=C(/C(=O)OCC)n1cc(Cl)c(=O)n(CC(=O)OCC)c1=O | 13700 | 9.67 µM and 28 µM | 20.6 | 10.7 µM and 36.8 µM |  | 9.28 µM and 30.6 µM | 3.29 | 25 µM and 10.5 µM |  | 46.3 |  | 25 µM and 97.7 µM
Cc1nc2cccc([N+](=O)[O-])c2c(NCCCN(C)C)c1C |  | 59 µM |  |  |  | > 100 µM |  | > 85.1 µM |  | 60.6 |  | > 100 µM
O=C1/C(=C/c2ccc(Cl)cc2Cl)N=C(c2ccccc2)N1Cc1ccco1 | 20700 | 47.1 µM | 17.6 | 49.3 µM | 15800 | 80.9 µM | 25.8 | > 100 µM | 13.9 | 33.3 | 25.5 | 57.9 µM
